Assay [1] has as its system HCT116-C9. Put plainly: Cell growth inhibition assay (MTT, 72 h) on HCT116-C9. It counts as cell-based. As to conditions: Homo sapiens. The method, then:
(§1) An E7070-resistant cell line was used to assess the antiproliferative activities of E7820, LY186641, LY295501, LY-ASAP and CQS. HCT116-C9 was a substrain separated from human colon cancer-derived HCT116 (American Type Culture Collection, Manassas, Va., U.S.A.). This HCT116-C9 was cultured in the presence of E7070 while increasing the E7070 concentration by degrees, thereby obtaining E7070-resistant substrains HCT116-C9-C1 and HCT116-C9-C4 (Molecular Cancer Therapeutics, 2002, 1, 275-286).
(§2) Three cell lines, i.e., HCT116-C9, HCT116-C9-C1 and HCT116-C9-C4, were each seeded at 3000 cells/well onto a 96-well microplate (flat bottom) (50 μl/well). Twenty-four hours later, they were added with a 3-fold dilution series of each compound (50 μl/well). Seventy-two hours later, the antiproliferative activities were assessed by MTT method (Mossmann T., J. Immunol. Methods, 1983, 65, 55-63). The 50% growth inhibitory concentrations to the cancer cells were obtained by a least square method.
(§3) In exactly the same manner as in Example 6, an E7070-resistant cell line was used to assess the antiproliferative activities of LY573636 as well as those of E7070.

In assay [2] the test system is HCT116-C9-C4. Put plainly: Cell growth inhibition assay (MTT, 72 h) on E7070-resistant HCT116-C9-C4. The assay is classed as cell-based. The following applies: Homo sapiens. As to the method:
as §1, §2, §3

In assay [3] the test system is HCT116-C9-C1. Put plainly: Cell growth inhibition assay (MTT, 72 h) on E7070-resistant HCT116-C9-C1. It counts as cell-based. As to conditions: Homo sapiens. As to the method:
as §1, §2, §3

Assay [4] has as its system human colon cancer cell line (Colo320DM). The experiment in a line: Subcutaneous transplant model of human colon cancer cell line Colo320DM, E7820 and Bevacizumab (Example 2). The assay is classed as in vivo. As to conditions: Colo320DM s.c. in nude mouse; E7820 200 mg/kg twice a day orally 3 weeks; Bevacizumab 25 mg/kg twice a week i.v. 3 weeks. The method, then: Human colon cancer cell line Colo320DM (purchased from Dainippon Pharmaceutical) was cultured in RPMI1640 (containing 10% FBS) in a 5% carbon dioxide incubator at 37° C. to about 80% confluence, and the cells were collected with trypsin-EDTA. Using a phosphate buffer containing 50% matrigel, 5×10^7 cells/mL suspension was prepared, and 0.1 mL each of the resulting cell suspension was subcutaneously transplanted to a nude mouse at the side of its body. Seven days after the transplantation, administration of E7820 (200 mg/kg, twice a day, for 3 weeks, orally administered) and administration of Bevacizumab (25 mg/kg, twice a week, for 3 weeks, intravenously administered) were initiated. The major and minor axes of tumors were measured with Digimatic caliper (Mitsutoyo), and tumor volumes and relative tumor volumes were calculated according to the following formulae.
(§4) Tumor Volume TV=Major axis of tumor (mm)×(Minor axis of tumor)^2 (mm^2)/2
(§5) Relative Tumor Volume RTV=Tumor volume on measurement day/Tumor volume on the first administration day

Assay [5] concerns human renal cancer cell line (786-O). The experiment in a line: Subcutaneous transplant model of human renal cancer cell line 786-O, E7820 and Bevacizumab (Example 9). The assay is classed as in vivo. The following applies: 786-O s.c. in nude mouse; E7820 200 mg/kg twice a day orally 2 weeks; Bevacizumab 25 mg/kg twice a week i.v. 2 weeks. As to the method: Human renal cancer cell line 786-0 (obtained from ATCC) was cultured in RPMI1640 (containing 10% FBS) in a 5% carbon dioxide incubator at 37° C. to about 80% confluence, and the cells were collected with trypsin-EDTA. Using a phosphate buffer containing 50% matrigel, 1×10^8 cells/mL suspension was prepared, and 0.1 mL each of the resulting cell suspension was subcutaneously transplanted to a nude mouse at the side of its body.
Seven days after the transplantation, E7820 and Bevacizumab were administered alone or in combination. E7820 was orally administered at 200 mg/kg twice a day for 2 weeks while Bevacizumab was intravenously administered at 25 mg/kg twice a week for 2 weeks.
The major and minor axes of tumors were measured with Digimatic caliper (Mitsutoyo), and tumor volumes and relative tumor volumes were calculated according to the following formulae.
as §4, §5

Assay [6] deals with human colon cancer cell line (Colo320DM). Put plainly: Subcutaneous transplant model of human colon cancer cell line Colo320DM, E7070 and Bevacizumab (Example 8). The following applies: Colo320DM s.c. in nude mouse, E7070 40 mg/kg i.v. Days 1 to 5, Bevacizumab 25 mg/kg i.v. Days 1, 5, 8 and 12; for Relative Tumor Volume (RTV) Average ± standard deviation: Day 23. The assay is classed as in vivo. The method, then: Human colon cancer cell line Colo320DM (purchased from ATCC) was cultured in RPMI1640 (containing 10% FBS) in a 5% carbon dioxide incubator to about 80% confluence, and the cells were collected with trypsin-EDTA. Using Hanks balanced solution, 5×10^7 cells/mL suspension was prepared, and 0.1 mL each of the resulting cell suspension was subcutaneously transplanted to a nude mouse at the side of its body.
Following transplantation, E7070 (40 mg/kg/day) and Bevacizumab (25 mg/kg/day) were administered alone or in combination when the average tumor volume became 259 mm^3.
E7070 alone was intravenously administered once a day for 5 days (on Days 1 to 5). On the other hand, Bevacizumab alone was intravenously administered twice a week for 2 weeks (on Days 1, 5, 8 and 12).
For the combinational use group, E7070 was intravenously administered on Days 1 to 5 while Bevacizumab was intravenously administered on Days 1, 5, 8 and 12.
The major and minor axes of tumors were measured twice a week from the initiation of administration with Digimatic caliper (Mitsutoyo), and tumor volumes were calculated according to the following formula.
as §4
The following two values were used for judging an anti-tumor effect.
Tx4: time (days) required for the tumor to grow to four times the initial tumor volume
RTV: Relative tumor volume (RTV)* on Day 23
*RTV=Tumor volume on Day 23/Initial tumor volume on Day 1

[7] abbreviates: Example 6, read-out: antiproliferative activity, IC50.
Setting [8] is: Example 7, read-out: antiproliferative activity, IC50.

Like-named read-outs stand apart in the source and are kept apart here.

The IC50 is the concentration that gives 50% inhibition. For `Nc1ccc(S(=O)(=O)Nc2cnc3c(Cl)cccc3n2)cc1` [CQS, 2-sulfanylamide-5-chloroquinoxaline], the concentration for half-maximal inhibition (IC50) in assay [1] (setting [7]) was determined as 1.73 µM; in assay [2] (setting [7]) it was 517 µM; in assay [3] (setting [7]), 634 µM.

As for `Cc1ccc(NS(=O)(=O)c2cccc(C#N)c2)c2[nH]cc(C#N)c12` [E7820, N-(3-cyano-4-methyl-1H-indole-7-yl)-3-cyanobenzenesulfonamide], the “Relative tumor volume on Day 22 Average ± standard deviation” value in assay [4] came out at 6.1 ± 1.8; in assay [5], 0.6 ± 0.1. In addition, the IC50 in assay [1] (setting [7]) is 0.08 µM; in assay [2] (setting [7]), 52.8 µM; in assay [3] (setting [7]), 51.2 µM.

On to “Bevacizumab: human anti-VEGF (Vascular Endothelial Growth Factor) monoclonal antibody, obtained by purchasing Avastin from Genentech”, for which the “Tx4 Average ± standard deviation (time required for the tumor to grow to four times the initial tumor volume)” value in assay [6] was 26.3 ± 2.8 days. Besides, the “Relative Tumor Volume (RTV) Average ± standard deviation” value in assay [6] turned out to be 2.84 ± 0.68. Further, the figures for the “Relative tumor volume on Day 22 Average ± standard deviation” value in assay [4] and in assay [5] were 5.1 ± 0.8 and 1.8 ± 0.2, respectively.

With `NS(=O)(=O)c1ccc(S(=O)(=O)Nc2cccc3c(Cl)c[nH]c23)cc1` [E7070, N-(3-chloro-1H-indole-7-yl)-4-sulfamoylbenzenesulfonamide], the “Tx4 Average ± standard deviation (time required for the tumor to grow to four times the initial tumor volume)” value in assay [6] worked out at 27.0 ± 3.4 days. Moreover, the “Relative Tumor Volume (RTV) Average ± standard deviation” value in assay [6] came out at 2.70 ± 0.97. The IC50 in assay [1] (setting [7]) was 0.127 µM; in assay [2] (setting [7]), 26.9 µM; in assay [2] (setting [8]) it was 28 µM; in assay [3] (setting [7]), 31.9 µM; in assay [3] (setting [8]), 32.7 µM.

As to `O=C(Nc1ccc(Cl)cc1)NS(=O)(=O)c1ccc2c(c1)CCC2` [LY186641, N-[[(4-chlorophenyl)amino]carbonyl]-2,3-dihydro-1H-indene-5-sulfonamide], the concentration for half-maximal inhibition (IC50) in assay [1] (setting [7]) was found to be 33.6 µM; in assay [2] (setting [7]), 138 µM; in assay [3] (setting [7]), 134 µM.

As to `O=C(NS(=O)(=O)c1ccc(Br)s1)c1ccc(Cl)cc1Cl` [LY573636, N-(2,4-dichlorobenzoyl)-5-bromothiophene-2-sulfonamide], the IC50 in assay [1] (setting [8]) stood at 5.11 µM; in assay [2] (setting [8]), 240 µM; in assay [3] (setting [8]), 264 µM.

Turning to `O=C(NS(=O)(=O)c1ccc(Cl)cc1)c1ccc(Cl)cc1Cl` [LY-ASAP, N-(2,4-dichlorobenzoyl)-4-chlorophenylsulfonamide], the results for the IC50 in assay [1] (setting [7]), in assay [2] (setting [7]) and in assay [3] (setting [7]) were 1.63 µM, 90.3 µM and 113 µM, respectively.

Turning to `O=C(Nc1ccc(Cl)c(Cl)c1)NS(=O)(=O)c1ccc2c(c1)CCO2` [LY295501, N-[[(3,4-dichlorophenyl)amino]carbonyl]-2,3-dihydrobenzofuran-5-sulfonamide], the IC50 came out at 10.9 µM in assay [1] (setting [7]), 110 µM in assay [2] (setting [7]) and 111 µM in assay [3] (setting [7]).
